Experimental data as given in patent US11352396B2, “Antimicrobial peptides and methods of using same” (Zoetis Services LLC, priority 2017, dated 2022).

Key:
S. aureus ATCC 29213 = type: cell-based; set-up: key to SA 29213: MIC in μM (lowest conc. with no visible growth); settings: S. aureus 29213, Table 6
Outline: (§1)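 Broth microdilution followed CLSI VET01-S2, with peptides serially diluted to in-assay concentrations of 50 μM to 0.05 μM. A 0.5 McFarland inoculum diluted 1:250 in Mueller-Hinton Broth was incubated with peptide for 18-20 hours. MIC was read visually as the first well without visible growth.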

E. coli ATCC 25922 = type: cell-based; settings: E. coli 25922, Table 6
Outline: as §1

[1] = test system: MSSP (Methicillin-Susceptible Staphylococcus pseudintermedius); assay: MIC against selected strains of MSSP; type: cell-based; set-up: MIC MSSP 49051 / MIC MSSP 81923 / MIC MSSP 84250 / Effect on MSSP 86000 / Effect on MSSP 72036 / Effect on MSSP 78032: unit not given beside the values; Effect on MSSP 71990 / Effect on MSSP 86001 / Effect on MSSP 72191 / Effect on MSSP 76986 / Effect on MSSP 77378 / Effect on MSSP 81923 / Effect on MSSP 84250 / Effect on MSSP 84658: unit: µM; settings: for SP 49051: S. pseudintermedius 49051, Table 6; for Effect on MSSP 71990: strain 71990, Table 5; for Effect on MSSP 72036: strain 72036, Table 5; for Effect on MSSP 72191: strain 72191, Table 5; for Effect on MSSP 76986: strain 76986, Table 5; for Effect on MSSP 77378: strain 77378, Table 5; for Effect on MSSP 78032: strain 78032, Table 5; for Effect on MSSP 81923: strain 81923, Table 5; for Effect on MSSP 84250: strain 84250, Table 5; for Effect on MSSP 84658: strain 84658, Table 5; for Effect on MSSP 86000: strain 86000, Table 5; for Effect on MSSP 86001: strain 86001, Table 5
Outline: (§2)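 MIC read by eye as the first well showing no growth after 18–20 h incubation. Cultures at 0.5 McFarland were diluted 1:250 in Mueller-Hinton broth and exposed to peptide over 50 μM–0.05 μM in the assay, per CLSI VET01-S2 microbroth method.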

[2] = test system: MRSP (Methicillin-Resistant Staphylococcus pseudintermedius); assay: MIC against selected strains of MRSP; type: cell-based; set-up: key to MIC MRSP 72192 / MIC MRSP 76923 / MR 71994 / Mr 88493 / MR 72035 / MR 72192 / MR 76923 / MR 79882 / MR 80279 / MR 81926 / MR 86002 / MR 87665: MIC in μM (visual, first well with no growth); settings: for MR 71994: MRSP strain 71994, Table 6; for MR 72035: MRSP strain 72035, Table 6; for MR 72192: MRSP strain 72192, Table 6; for MR 76923: MRSP strain 76923, Table 6; for MR 79882: MRSP strain 79882, Table 6; for MR 80279: MRSP strain 80279, Table 6; for MR 81926: MRSP strain 81926, Table 6; for MR 86002: MRSP strain 86002, Table 6; for MR 87665: MRSP strain 87665, Table 6; for Mr 88493: MRSP strain 88493, Table 6
Outline: as §2

[3] = test system: Canine-derived epithelial keratinocyte (CPEK) cells; type: cell-based
Outline: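 Viability was read by CellTiter-Glo luminescence after overnight exposure (37 °C, 5% CO2) of canine keratinocytes to a peptide range of 50–0.05 μM. Percent effect used phosphate buffer as the zero control and 0.1% Triton X-100 as the full-effect control.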

cRBC = type: cell-based, canine
Outline: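 Percent lysis, measured by absorbance at 405 nm, used 1% Triton X-100 as full effect and phosphate buffer as zero. Peptides spanned 50 µM–0.05 µM and were held with plasma-depleted washed erythrocytes at 37 °C for 1 h.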

Substance	SA 29213 (S. aureus ATCC 29213)	EC 25922 (E. coli ATCC 25922) [µM]	SP 49051 [1]	Effect on MSSP 71990 [1]	Effect on MSSP 72036 [1]	Effect on MSSP 72191 [1]	Effect on MSSP 76986 [1]	Effect on MSSP 77378 [1]	Effect on MSSP 78032 [1]	Effect on MSSP 81923 [1]	Effect on MSSP 84250 [1]	Effect on MSSP 84658 [1]	Effect on MSSP 86000 [1]	Effect on MSSP 86001 [1]	MR 71994 [2]	MR 72035 [2]	MR 72192 [2]	MR 76923 [2]	MR 79882 [2]	MR 80279 [2]	further results
103 (KWCFRVCKRGICYRRCRD; Artificial Antimicrobial peptide) [compound 103]	25	6.2	3.1	3.1	3.1	3.1	3.1	3.1	3.1	3.1	6.2	3.1	3.1	3.1	3.1	3.1	3.1	3.1	3.1	3.1	MR 81926 [2]: 3.1; MR 86002 [2]: 3.1; MR 87665 [2]: 3.1; Mr 88493 [2]: 3.1; CPEK (50 μM) [3]: −0.5; cRBC (50 μM) (cRBC): 7.9
104 (KWCFRVCYFGICYRRCRD; Artificial Antimicrobial peptide) [compound 104]	6.2	3.1	1.6	1.6	3.1	1.6	1.6	1.6	1.6	3.1	3.1	1.6	3.1	1.6	3.1	1.6	1.6	1.6	1.6	1.6	MR 81926 [2]: 1.6; MR 86002 [2]: 1.6; MR 87665 [2]: 3.1; Mr 88493 [2]: 3.1; CPEK (50 μM) [3]: 6.0; cRBC (50 μM) (cRBC): 100.6
105 (KWCFRVCYRGICYRRCRN; Artificial Antimicrobial peptide) [compound 105]	6.2	3.1	1.6	1.6	1.6	1.6	1.6	0.8	1.6	1.6	1.6	3.1	1.6	1.6	1.6	1.6	1.6	1.6	0.8	1.6	MR 81926 [2]: 1.6; MR 86002 [2]: 1.6; MR 87665 [2]: 1.6; Mr 88493 [2]: 3.1; CPEK (50 μM) [3]: 8.6; cRBC (50 μM) (cRBC): 97.9
106 (KWCWRVCYRGICYRRCRD; Artificial Antimicrobial peptide) [compound 106]	3.1	3.1	1.6	1.6	1.6	1.6	1.6	0.8	1.6	1.6	1.6	1.6	1.6	1.6	1.6	3.1	1.6	1.6	0.8	1.6	MR 81926 [2]: 1.6; MR 86002 [2]: 1.6; MR 87665 [2]: 1.6; Mr 88493 [2]: 3.1; CPEK (50 μM) [3]: 25.2; cRBC (50 μM) (cRBC): 101.5
107 (KWCFRVCWRGICYRRCRD; Artificial Antimicrobial peptide) [compound 107]	3.1	3.1	1.6	1.6	1.6	1.6	1.6	1.6	1.6	1.6	1.6	1.6	1.6	1.6	1.6	3.1	1.6	1.6	0.8	1.6	MR 81926 [2]: 1.6; MR 86002 [2]: 1.6; MR 87665 [2]: 1.6; Mr 88493 [2]: 1.6; CPEK (50 μM) [3]: 26.3; cRBC (50 μM) (cRBC): 101.8
